From ChEMBL document CHEMBL4359906, “Design and synthesis of new N-terminal fatty acid modified-antimicrobial peptide analogues with potent in vitro biological activity” (Eur J Med Chem, 2019)
Values after ≈ are worked out from the molar mass of the structure shown. Active and inactive are the calls of the source. No cut-off for these calls is given here.

Assays:
Pseudomonas aeruginosa [1] = test: Antibacterial activity against Pseudomonas aeruginosa ATCC 27853 after 18 hrs by CLSI based broth microdilution method; format: functional; settings: ATCC 27853, 18 h
Escherichia coli [2] = test: Antibiofilm activity against Escherichia coli ATCC 25922 at 2 times MIC after 24 hrs by crystal violet staining based assay; format: functional, organism-based
Klebsiella pneumoniae [3] = test: Antibacterial activity against Klebsiella pneumoniae ATCC 700603 after 18 hrs by CLSI based broth microdilution method; format: functional; settings: Klebsiella pneumoniae, 700603, 18 h
Staphylococcus aureus [4] = test: Antibacterial activity against Staphylococcus aureus ATCC 25923 after 18 hrs by CLSI based broth microdilution method; format: functional; settings: ATCC 25923, 18 h
Staphylococcus aureus [5] = test: Ratio of antibacterial activity against Staphylococcus aureus ATCC 25923 in presence of MgCl2 to antibacterial activity against Staphylococcus aureus ATCC 25923; format: functional
Escherichia coli [6] = test: Disruption of membrane integrity in Escherichia coli ATCC 25922 assessed as membrane damage by measuring PI fluorescence incubated for 1 hr by PI dye based flow cytometric analysis; format: functional, organism-based
Pseudomonas aeruginosa [7] = test: Antibiofilm activity against Pseudomonas aeruginosa ATCC 27853 after 24 hrs by crystal violet staining based assay; format: functional, organism-based
Escherichia coli [8] = test: Ratio of antibacterial activity against Escherichia coli ATCC 25922 in presence of KCl to antibacterial activity against Escherichia coli ATCC 25922; format: functional
Escherichia coli [9] = test: Induction of membrane disruption in Escherichia coli ATCC 25922 assessed as rough membrane surface at 4 times of MIC after 2 hrs by SEM analysis; format: functional, organism-based
Escherichia coli [10] = test: Disruption of membrane integrity in Escherichia coli ATCC 25922 assessed as membrane damage by measuring PI fluorescence at 2 times of MIC incubated for 1 hr by PI dye based flow cytometric analysis (reference value: 1.35%); format: functional
Escherichia coli [11] = test: Induction of inner membrane permeabilization in Escherichia coli ATCC 43837 assessed as increase in ONPG release at 1 to 2 times of MIC by ONPG dye based assay; format: organism-based
Escherichia coli [12] = test: Induction of membrane disruption in Escherichia coli ATCC 25922 assessed as degeneration in membrane at 4 times of MIC after 2 hrs by SEM analysis; format: functional, organism-based
Escherichia coli [13] = test: Induction of outer membrane permeabilization in Escherichia coli ATCC 25922 measured up to 12 mins by NPN-dye based assay; format: organism-based
Staphylococcus aureus [14] = test: Ratio of antibacterial activity against Staphylococcus aureus ATCC 25923 in presence of NaCl to antibacterial activity against Staphylococcus aureus ATCC 25923; format: functional
Pseudomonas aeruginosa [15] = test: Potentiation of polymyxin B-induced antibacterial activity against Pseudomonas aeruginosa ATCC 27853 assessed as FICI after 18 hrs by checker board assay; format: functional
Pseudomonas aeruginosa [16] = test: Antibiofilm activity against Pseudomonas aeruginosa ATCC 27853 at 0.25 to 2 times of MIC after 24 hrs by crystal violet staining based assay; format: functional, organism-based
Escherichia coli [17] = test: Potentiation of rifampicin-induced antibacterial activity against Escherichia coli ATCC 25922 assessed as FICI after 18 hrs by checker board assay; format: functional
Escherichia coli [18] = test: Disruption of membrane integrity in Escherichia coli ATCC 25922 assessed as membrane damage by measuring PI fluorescence at 4 times of MIC incubated for 1 hr by PI dye based flow cytometric analysis (reference value: 1.35%); format: functional
Staphylococcus aureus [19] = test: Antibacterial activity against methicillin-resistant Staphylococcus aureus 936 after 18 hrs by CLSI based broth microdilution method; format: functional; settings: Staphylococcus aureus, 936, 18 h
Escherichia coli [20] = test: Induction of membrane disruption in Escherichia coli ATCC 25922 assessed as corrugated membrane surface at 4 times of MIC after 2 hrs by SEM analysis; format: functional, organism-based
Escherichia coli [21] = test: Antimicrobial activity against Escherichia coli ATCC 25922 at 1 mM preincubated for 6 hrs in presence of 2000 ug/ml trypsin and measured after 18 hrs by microplate reader analysis; format: functional, organism-based
[22] = Selectivity index, ratio of MHC10 for human RBC to geometric mean of peptide MIC for gram negative bacteria; format: toxicity; settings: human red blood cells, read-out: Selectivity Index
Escherichia coli [23] = test: Potentiation of polymyxin B-induced antibacterial activity against Escherichia coli ATCC 25922 assessed as FICI after 18 hrs by checker board assay; format: functional
Escherichia coli [24] = test: Induction of inner membrane permeabilization in Escherichia coli ATCC 43837 assessed as increase in ONPG release at 4 times of MIC by ONPG dye based assay; format: organism-based
Escherichia coli [25] = test: Induction of ROS generation in Escherichia coli ATCC 25922; format: functional, organism-based
Bacillus subtilis = test: Antibacterial activity against Bacillus subtilis ATCC 23857 after 18 hrs by CLSI based broth microdilution method; format: functional; settings: ATCC 23857, 18 h
Staphylococcus aureus [26] = test: Antibiofilm activity against Staphylococcus aureus ATCC 25923 after 24 hrs by crystal violet staining based assay; format: functional, organism-based
Escherichia coli [27] = test: Ratio of antibacterial activity against Escherichia coli ATCC 25922 in presence of NaCl to antibacterial activity against Escherichia coli ATCC 25922; format: functional
Escherichia coli [28] = test: Antibacterial activity against Escherichia coli ATCC 43837 after 18 hrs by CLSI based broth microdilution method; format: functional; settings: ATCC 43837, 18 h
Erythrocyte = test: Hemolytic activity in human RBC measured after 1 hr by microplate reader analysis; format: ADME, cell-based
Klebsiella pneumoniae [29] = test: Potentiation of polymyxin B-induced antibacterial activity against Klebsiella pneumoniae ATCC 700603 assessed as FICI after 18 hrs by checker board assay; format: functional
DNA = test: Binding affinity to Escherichia coli ATCC 25922 genomic DNA after 30 mins by agarose gel electrophoresis; format: nucleic-acid assay
Staphylococcus aureus [30] = test: Ratio of antibacterial activity against Staphylococcus aureus ATCC 25923 in presence of KCl to antibacterial activity against Staphylococcus aureus ATCC 25923; format: functional
Escherichia coli [31] = test: Antibiofilm activity against Escherichia coli ATCC 25922 after 24 hrs by crystal violet staining based assay; format: functional, organism-based
Escherichia coli [32] = test: Ratio of antibacterial activity against Escherichia coli ATCC 25922 in presence of FeCl3 to antibacterial activity against Escherichia coli ATCC 25922; format: functional
Escherichia coli [33] = test: Antibacterial activity against Escherichia coli ATCC 25922 after 18 hrs by CLSI based broth microdilution method; format: functional; settings: ATCC 25922, 18 h
Escherichia coli [34] = test: Ratio of MIC for Escherichia coli ATCC 25922 preincubated for 6 hrs in presence of 10% mouse serum and measured after 18 hrs to MIC for antibacterial activity against Escherichia coli ATCC 25922 after 18 hrs; format: functional
[35] = Selectivity index, ratio of MHC10 for human RBC to geometric mean of peptide MIC for gram positive bacteria; format: toxicity; settings: human red blood cells, read-out: Selectivity Index
Pseudomonas aeruginosa [36] = test: Potentiation of rifampicin-induced antibacterial activity against Pseudomonas aeruginosa ATCC 27853 assessed as FICI after 18 hrs by checker board assay; format: functional
Escherichia coli [37] = test: Ratio of antibacterial activity against Escherichia coli ATCC 25922 in presence of MgCl2 to antibacterial activity against Escherichia coli ATCC 25922; format: functional
Staphylococcus aureus [38] = test: Ratio of antibacterial activity against Staphylococcus aureus ATCC 25923 in presence of FeCl3 to antibacterial activity against Staphylococcus aureus ATCC 25923; format: functional

With `CCCC(=O)NC(Cc1cn(CCCC[C@H](NC(C)=O)C(=O)NCC(=O)N[C@@H](CC(C)C)C(=O)N[C@@H](CC(C)C)C(=O)N[C@H](CCCCN)C(=O)N[C@@H](CCCNC(=N)N)C(=O)N[C@H](C(=O)N[C@H](CCCCN)C(=O)N[C@H](C(=O)N[C@@H](CC(C)C)C(=O)N[C@@H](CC(C)C)C(N)=O)[C@@H](C)O)[C@@H](C)CC)nn1)C(=O)NCC(=O)N[C@@H](CC(C)C)C(=O)N[C@@H](CC(C)C)C(=O)N[C@H](CCCCN)C(=O)N[C@@H](CCCNC(=N)N)C(=O)N[C@H](C(=O)N[C@H](CCCCN)C(=O)N[C@H](C(=O)N[C@@H](CC(C)C)C(=O)N[C@@H](CC(C)C)C(N)=O)[C@@H](C)O)[C@@H](C)CC` (some centres not stated) the MIC (Pseudomonas aeruginosa [1]) was 8 µM (≈ 21.3 µg/mL), the inhibition (Escherichia coli [2]) was “Active” and the MIC (Klebsiella pneumoniae [3]) was 32 µM (≈ 85.4 µg/mL). The MIC (Staphylococcus aureus [4]) was 128 µM (≈ 342 µg/mL), the Ratio (Staphylococcus aureus [5]) was 2 - 4 and the Activity (Escherichia coli [6]) was “Dose-dependent effect”. For the same compound, the inhibition (Pseudomonas aeruginosa [7]) was “Dose-dependent effect”, the Ratio (Escherichia coli [8]) was 2 - 4 and the Activity (Escherichia coli [9]) was “Active”. For the same compound, the Activity (Escherichia coli [10]) was 21.2%, the Activity (Escherichia coli [11]) was “Active” and the Activity (Escherichia coli [12]) was “Active”. For the same compound, the Activity (Escherichia coli [13]) was “Dose-dependent effect”, the Ratio (Staphylococcus aureus [14]) was 2 - 4 and the “fractional inhibitory concentration index (FICI)” value (Pseudomonas aeruginosa [15]) was 0.375. The inhibition (Pseudomonas aeruginosa [16]) was “Active”, the “fractional inhibitory concentration index (FICI)” value (Escherichia coli [17]) was 0.3125 and the Activity (Escherichia coli [18]) was 43.2%. For the same compound, the MIC (Staphylococcus aureus [19]) was 128 µM (≈ 342 µg/mL), the Activity (Escherichia coli [20]) was “Active” and the Activity (Escherichia coli [21]) was “Active”. The selectivity ratio [22] was 32, the “fractional inhibitory concentration index (FICI)” value (Escherichia coli [23]) was 0.3125 and the Activity (Escherichia coli [24]) was “Active”. For the same compound, the Activity (Escherichia coli [25]) was “Active”, the MIC (Bacillus subtilis) was 4 µM (≈ 10.7 µg/mL) and the inhibition (Staphylococcus aureus [26]) was “Dose-dependent effect”. The Ratio (Escherichia coli [27]) was 2 - 4, the MIC (Escherichia coli [28]) was 8 µM (≈ 21.3 µg/mL) and the MHC10 (Erythrocyte) was over 256 µM. The “fractional inhibitory concentration index (FICI)” value (Klebsiella pneumoniae [29]) was 0.1875, the Activity (DNA) was “Dose-dependent effect” and the Ratio (Staphylococcus aureus [30]) was 2 - 4. For the same compound, the inhibition (Escherichia coli [31]) was “Dose-dependent effect”, the Ratio (Escherichia coli [32]) was 2 - 4 and the MIC (Escherichia coli [33]) was 16 µM (≈ 42.7 µg/mL). For the same compound, the Ratio (Escherichia coli [34]) was 1, the selectivity ratio [35] was 5.91 and the “fractional inhibitory concentration index (FICI)” value (Pseudomonas aeruginosa [36]) was 0.375. The Ratio (Escherichia coli [37]) was 2 - 4 and the Ratio (Staphylococcus aureus [38]) was 2 - 4.

In the case of `CCCCCCCCCCCC(=O)NC(Cc1cn(CCCC[C@H](NC(C)=O)C(=O)NCC(=O)N[C@@H](CC(C)C)C(=O)N[C@@H](CC(C)C)C(=O)N[C@H](CCCCN)C(=O)N[C@@H](CCCNC(=N)N)C(=O)N[C@H](C(=O)N[C@H](CCCCN)C(=O)N[C@H](C(=O)N[C@@H](CC(C)C)C(=O)N[C@@H](CC(C)C)C(N)=O)[C@@H](C)O)[C@@H](C)CC)nn1)C(=O)NCC(=O)N[C@@H](CC(C)C)C(=O)N[C@@H](CC(C)C)C(=O)N[C@H](CCCCN)C(=O)N[C@@H](CCCNC(=N)N)C(=O)N[C@H](C(=O)N[C@H](CCCCN)C(=O)N[C@H](C(=O)N[C@@H](CC(C)C)C(=O)N[C@@H](CC(C)C)C(N)=O)[C@@H](C)O)[C@@H](C)CC` (some centres not stated), the MIC (Pseudomonas aeruginosa [1]) is reported as 8 µM (≈ 22.2 µg/mL), the inhibition (Escherichia coli [2]) is reported as “Active” and the MIC (Klebsiella pneumoniae [3]) is reported as 8 µM (≈ 22.2 µg/mL). For the same compound, the MIC (Staphylococcus aureus [4]) was 8 µM (≈ 22.2 µg/mL), the Ratio (Staphylococcus aureus [5]) was 2 - 4 and the Activity (Escherichia coli [6]) was “Dose-dependent effect”. The inhibition (Pseudomonas aeruginosa [7]) was “Dose-dependent effect”, the Ratio (Escherichia coli [8]) was 2 - 4 and the Activity (Escherichia coli [9]) was “Active”. For the same compound, the Activity (Escherichia coli [10]) was 60.7%, the Activity (Escherichia coli [11]) was “Active” and the Activity (Escherichia coli [12]) was “Active”. The Activity (Escherichia coli [13]) was “Dose-dependent effect”, the Ratio (Staphylococcus aureus [14]) was 2 - 4 and the “fractional inhibitory concentration index (FICI)” value (Pseudomonas aeruginosa [15]) was 0.1875. The inhibition (Pseudomonas aeruginosa [16]) was “Active”, the “fractional inhibitory concentration index (FICI)” value (Escherichia coli [17]) was 0.5625 and the Activity (Escherichia coli [18]) was 88.9%. The MIC (Staphylococcus aureus [19]) was 16 µM (≈ 44.5 µg/mL), the Activity (Escherichia coli [20]) was “Active” and the Activity (Escherichia coli [21]) was “Active”. The selectivity ratio [22] was 2, the “fractional inhibitory concentration index (FICI)” value (Escherichia coli [23]) was 0.3125 and the Activity (Escherichia coli [24]) was “Active”. For the same compound, the Activity (Escherichia coli [25]) was “inactive”, the MIC (Bacillus subtilis) was 2 µM (≈ 5.56 µg/mL) and the inhibition (Staphylococcus aureus [26]) was “Dose-dependent effect”. The Ratio (Escherichia coli [27]) was 2 - 4, the MIC (Escherichia coli [28]) was 8 µM (≈ 22.2 µg/mL) and the MHC10 (Erythrocyte) was 16 µM. The “fractional inhibitory concentration index (FICI)” value (Klebsiella pneumoniae [29]) was 0.3125, the Activity (DNA) was “Dose-dependent effect” and the Ratio (Staphylococcus aureus [30]) was 2 - 4. The inhibition (Escherichia coli [31]) was “Dose-dependent effect”, the Ratio (Escherichia coli [32]) was 2 - 4 and the MIC (Escherichia coli [33]) was 8 µM (≈ 22.2 µg/mL). The Ratio (Escherichia coli [34]) was 4, the selectivity ratio [35] was 1.85 and the “fractional inhibitory concentration index (FICI)” value (Pseudomonas aeruginosa [36]) was 0.3125. The Ratio (Escherichia coli [37]) was 2 - 4 and the Ratio (Staphylococcus aureus [38]) was 2 - 4.
